In brackets after ≈: the same amount, converted by molar mass.
Legend:
Format in all cases: functional
[1] = tested on: Staphylococcus aureus; test: Ratio of norfloxacin MIC to compound MIC for methicillin-resistant Staphylococcus aureus CCARM 3506 clinical isolate
[2] = tested on: Staphylococcus aureus; test: Antibacterial activity against Staphylococcus aureus KCTC 209 after 24 hrs by broth microdilution method; details: KCTC 209, 24 h
[3] = tested on: Staphylococcus aureus; test: Ratio of norfloxacin MIC to compound MIC for quinolone-resistant Staphylococcus aureus CCARM 3519 clinical isolate
[4] = tested on: Staphylococcus aureus; test: Antibacterial activity against methicillin-resistant Staphylococcus aureus CCARM 3167 clinical isolate after 24 hrs by broth microdilution method; details: CCARM 3167, 24 h
[5] = tested on: Staphylococcus aureus; test: Antibacterial activity against quinolone-resistant Staphylococcus aureus CCARM 3519 clinical isolate after 24 hrs by broth microdilution method; details: CCARM 3519, 24 h
[6] = tested on: Staphylococcus aureus; test: Ratio of norfloxacin MIC to compound MIC for quinolone-resistant Staphylococcus aureus CCARM 3505 clinical isolate
[7] = tested on: Staphylococcus aureus; test: Antibacterial activity against methicillin-resistant Staphylococcus aureus CCARM 3506 clinical isolate after 24 hrs by broth microdilution method; details: CCARM 3506, 24 h
[8] = tested on: Staphylococcus aureus; test: Ratio of norfloxacin MIC to compound MIC for methicillin-resistant Staphylococcus aureus CCARM 3167 clinical isolate
[9] = tested on: Escherichia coli; test: Antibacterial activity against Escherichia coli CCARM 1356 after 24 hrs by broth microdilution method; details: CCARM 1356, 24 h
[10] = tested on: Staphylococcus aureus; test: Antibacterial activity against Staphylococcus aureus KCTC 503 after 24 hrs by broth microdilution method; details: KCTC 503, 24 h
[11] = tested on: Staphylococcus aureus; test: Antibacterial activity against quinolone-resistant Staphylococcus aureus CCARM 3505 clinical isolate after 24 hrs by broth microdilution method; details: CCARM 3505, 24 h
[12] = tested on: Staphylococcus aureus; test: Antibacterial activity against Staphylococcus aureus RN4220 after 24 hrs by broth microdilution method; details: RN4220, 24 h

Row | SMILES | Ratio [1] | MIC [2] | Ratio [3] | MIC [4] | MIC [5] | Ratio [6] | MIC [7] | Ratio [8] | MIC [9] | MIC [10] | MIC [11] | MIC [12]
1 | O=C(/C=C/c1ccc(/C=C2\SC(=S)N([C@@H](Cc3ccccc3)C(=O)O)C2=O)cc1)c1ccc(F)cc1 | 2 | 16 µg/mL (≈ 30.9 µM) | 2 | 4 µg/mL (≈ 7.73 µM) | 8 µg/mL (≈ 15.5 µM) | 2 | 4 µg/mL (≈ 7.73 µM) | 2 | > 64 µg/mL | 16 µg/mL (≈ 30.9 µM) | 8 µg/mL (≈ 15.5 µM) | 4 µg/mL (≈ 7.73 µM)
2 | O=C(O)[C@H](Cc1ccccc1)N1C(=O)/C(=C\c2ccc(OCc3ccccc3Cl)cc2)SC1=S | 2 | 8 µg/mL (≈ 15.7 µM) | 2 | 4 µg/mL (≈ 7.84 µM) | 4 µg/mL (≈ 7.84 µM) | 2 | 4 µg/mL (≈ 7.84 µM) | 2 | > 64 µg/mL | 8 µg/mL (≈ 15.7 µM) | 4 µg/mL (≈ 7.84 µM) | 4 µg/mL (≈ 7.84 µM)
3 | Cc1ccc(C(=O)/C=C/c2ccc(/C=C3\SC(=S)N([C@@H](Cc4ccccc4)C(=O)O)C3=O)cc2)c(C)c1 | 2 | 16 µg/mL (≈ 30.3 µM) | 2 | 4 µg/mL (≈ 7.58 µM) | 8 µg/mL (≈ 15.2 µM) | 2 | 4 µg/mL (≈ 7.58 µM) | 2 | > 64 µg/mL | 16 µg/mL (≈ 30.3 µM) | 8 µg/mL (≈ 15.2 µM) | 4 µg/mL (≈ 7.58 µM)
4 | Cc1ccc(COc2ccc(/C=C3\SC(=S)N([C@@H](Cc4ccccc4)C(=O)O)C3=O)cc2)cc1 | 2 | 8 µg/mL (≈ 16.3 µM) | 2 | 4 µg/mL (≈ 8.17 µM) | 8 µg/mL (≈ 16.3 µM) | 2 | 8 µg/mL (≈ 16.3 µM) | 2 | > 64 µg/mL | 16 µg/mL (≈ 32.7 µM) | 8 µg/mL (≈ 16.3 µM) | 4 µg/mL (≈ 8.17 µM)
5 | COc1ccc(C(=O)/C=C/c2ccc(/C=C3\SC(=S)N([C@@H](Cc4ccccc4)C(=O)O)C3=O)cc2)cc1 | 2 | 16 µg/mL (≈ 30.2 µM) | 2 | 4 µg/mL (≈ 7.55 µM) | 4 µg/mL (≈ 7.55 µM) | 2 | 4 µg/mL (≈ 7.55 µM) | 2 | > 64 µg/mL | 16 µg/mL (≈ 30.2 µM) | 4 µg/mL (≈ 7.55 µM) | 4 µg/mL (≈ 7.55 µM)
6 | O=C(/C=C/c1ccc(/C=C2\SC(=S)N([C@@H](Cc3ccccc3)C(=O)O)C2=O)cc1)c1ccccc1F | 2 | 16 µg/mL (≈ 30.9 µM) | 2 | 4 µg/mL (≈ 7.73 µM) | 8 µg/mL (≈ 15.5 µM) | 2 | 4 µg/mL (≈ 7.73 µM) | 2 | > 64 µg/mL | 16 µg/mL (≈ 30.9 µM) | 8 µg/mL (≈ 15.5 µM) | 4 µg/mL (≈ 7.73 µM)
7 | O=C(/C=C/c1ccc(/C=C2\SC(=S)N([C@@H](Cc3ccccc3)C(=O)O)C2=O)cc1)c1ccc(Br)cc1 | 2 | 4 µg/mL (≈ 6.91 µM) | 2 | 2 µg/mL (≈ 3.46 µM) | 2 µg/mL (≈ 3.46 µM) | 2 | 2 µg/mL (≈ 3.46 µM) | 2 | > 64 µg/mL | 4 µg/mL (≈ 6.91 µM) | 8 µg/mL (≈ 13.8 µM) | 2 µg/mL (≈ 3.46 µM)
8 | O=C(O)[C@H](Cc1ccccc1)N1C(=O)/C(=C\c2ccc(OCc3cccc(F)c3)cc2)SC1=S | 2 | 16 µg/mL (≈ 32.4 µM) | 2 | 8 µg/mL (≈ 16.2 µM) | 8 µg/mL (≈ 16.2 µM) | 2 | 8 µg/mL (≈ 16.2 µM) | 2 | > 64 µg/mL | 16 µg/mL (≈ 32.4 µM) | 8 µg/mL (≈ 16.2 µM) | 4 µg/mL (≈ 8.1 µM)
9 | O=C(/C=C/c1ccc(/C=C2\SC(=S)N([C@@H](Cc3ccccc3)C(=O)O)C2=O)cc1)c1ccc(Cl)cc1 | 2 | 8 µg/mL (≈ 15 µM) | 2 | 2 µg/mL (≈ 3.74 µM) | 4 µg/mL (≈ 7.49 µM) | 2 | 4 µg/mL (≈ 7.49 µM) | 2 | > 64 µg/mL | 8 µg/mL (≈ 15 µM) | 4 µg/mL (≈ 7.49 µM) | 2 µg/mL (≈ 3.74 µM)
10 | Cc1ccc(C(=O)/C=C/c2ccc(/C=C3\SC(=S)N([C@@H](Cc4ccccc4)C(=O)O)C3=O)cc2)cc1 | 2 | 8 µg/mL (≈ 15.6 µM) | 2 | 2 µg/mL (≈ 3.89 µM) | 2 µg/mL (≈ 3.89 µM) | 2 | 2 µg/mL (≈ 3.89 µM) | 2 | > 64 µg/mL | 8 µg/mL (≈ 15.6 µM) | 8 µg/mL (≈ 15.6 µM) | 2 µg/mL (≈ 3.89 µM)
11 | O=C(O)[C@H](Cc1ccccc1)N1C(=O)/C(=C\c2ccc(OCc3ccc(Cl)cc3)cc2)SC1=S | 2 | 8 µg/mL (≈ 15.7 µM) | 2 | 4 µg/mL (≈ 7.84 µM) | 4 µg/mL (≈ 7.84 µM) | 2 | 4 µg/mL (≈ 7.84 µM) | 2 | > 64 µg/mL | 8 µg/mL (≈ 15.7 µM) | 4 µg/mL (≈ 7.84 µM) | 2 µg/mL (≈ 3.92 µM)
12 | CC(=O)Nc1ccc(C(=O)/C=C/c2ccc(/C=C3\SC(=S)N([C@@H](Cc4ccccc4)C(=O)O)C3=O)cc2)cc1 | 2 | 16 µg/mL (≈ 28.7 µM) | 2 | 4 µg/mL (≈ 7.19 µM) | 4 µg/mL (≈ 7.19 µM) | 2 | 2 µg/mL (≈ 3.59 µM) | 2 | > 64 µg/mL | 16 µg/mL (≈ 28.7 µM) | 4 µg/mL (≈ 7.19 µM) | 4 µg/mL (≈ 7.19 µM)
13 | O=C(O)[C@H](Cc1ccccc1)N1C(=O)/C(=C\c2ccc(OCc3cccc(Cl)c3)cc2)SC1=S | 2 | 8 µg/mL (≈ 15.7 µM) | 2 | 4 µg/mL (≈ 7.84 µM) | 4 µg/mL (≈ 7.84 µM) | 2 | 4 µg/mL (≈ 7.84 µM) | 2 | > 64 µg/mL | 8 µg/mL (≈ 15.7 µM) | 4 µg/mL (≈ 7.84 µM) | 2 µg/mL (≈ 3.92 µM)
14 | O=C(/C=C/c1ccc(/C=C2\SC(=S)N([C@@H](Cc3ccccc3)C(=O)O)C2=O)cc1)c1cccc(Br)c1 | 2 | 16 µg/mL (≈ 27.7 µM) | 2 | 8 µg/mL (≈ 13.8 µM) | 16 µg/mL (≈ 27.7 µM) | 2 | 8 µg/mL (≈ 13.8 µM) | 2 | > 64 µg/mL | 16 µg/mL (≈ 27.7 µM) | 8 µg/mL (≈ 13.8 µM) | 8 µg/mL (≈ 13.8 µM)
15 | O=C(/C=C/c1ccc(/C=C2\SC(=S)N([C@@H](Cc3ccccc3)C(=O)O)C2=O)cc1)c1ccccc1Br | 2 | 16 µg/mL (≈ 27.7 µM) | 2 | 2 µg/mL (≈ 3.46 µM) | 4 µg/mL (≈ 6.91 µM) | 2 | 4 µg/mL (≈ 6.91 µM) | 2 | > 64 µg/mL | 16 µg/mL (≈ 27.7 µM) | 4 µg/mL (≈ 6.91 µM) | 2 µg/mL (≈ 3.46 µM)
16 | O=C(/C=C/c1ccc(/C=C2\SC(=S)N([C@@H](Cc3ccccc3)C(=O)O)C2=O)cc1)c1cccc(Cl)c1 | 2 | 16 µg/mL (≈ 30 µM) | 2 | 2 µg/mL (≈ 3.74 µM) | 8 µg/mL (≈ 15 µM) | 2 | 4 µg/mL (≈ 7.49 µM) | 2 | > 64 µg/mL | 16 µg/mL (≈ 30 µM) | 8 µg/mL (≈ 15 µM) | 2 µg/mL (≈ 3.74 µM)
17 | COc1ccccc1C(=O)/C=C/c1ccc(/C=C2\SC(=S)N([C@@H](Cc3ccccc3)C(=O)O)C2=O)cc1 | 2 | 16 µg/mL (≈ 30.2 µM) | 2 | 8 µg/mL (≈ 15.1 µM) | 16 µg/mL (≈ 30.2 µM) | 2 | 8 µg/mL (≈ 15.1 µM) | 2 | > 64 µg/mL | 16 µg/mL (≈ 30.2 µM) | 4 µg/mL (≈ 7.55 µM) | 8 µg/mL (≈ 15.1 µM)
18 | COc1cccc(C(=O)/C=C/c2ccc(/C=C3\SC(=S)N([C@@H](Cc4ccccc4)C(=O)O)C3=O)cc2)c1 | 2 | 16 µg/mL (≈ 30.2 µM) | 2 | 8 µg/mL (≈ 15.1 µM) | 8 µg/mL (≈ 15.1 µM) | 2 | 8 µg/mL (≈ 15.1 µM) | 2 | > 64 µg/mL | 16 µg/mL (≈ 30.2 µM) | 8 µg/mL (≈ 15.1 µM) | 4 µg/mL (≈ 7.55 µM)
19 | O=C(O)[C@H](Cc1ccccc1)N1C(=O)/C(=C\c2ccc(OCc3ccc(Br)cc3)cc2)SC1=S | 2 | 8 µg/mL (≈ 14.4 µM) | 2 | 4 µg/mL (≈ 7.21 µM) | 8 µg/mL (≈ 14.4 µM) | 2 | 8 µg/mL (≈ 14.4 µM) | 2 | > 64 µg/mL | 8 µg/mL (≈ 14.4 µM) | 8 µg/mL (≈ 14.4 µM) | 2 µg/mL (≈ 3.61 µM)
20 | O=C(/C=C/c1ccc(/C=C2\SC(=S)N([C@@H](Cc3ccccc3)C(=O)O)C2=O)cc1)c1ccc(Cl)cc1Cl | 2 | 16 µg/mL (≈ 28.1 µM) | 2 | 4 µg/mL (≈ 7.04 µM) | 16 µg/mL (≈ 28.1 µM) | 2 | 4 µg/mL (≈ 7.04 µM) | 2 | > 64 µg/mL | 16 µg/mL (≈ 28.1 µM) | 4 µg/mL (≈ 7.04 µM) | 4 µg/mL (≈ 7.04 µM)
21 | O=C(O)[C@H](Cc1ccccc1)N1C(=O)/C(=C\c2ccc(OCc3ccc(F)cc3)cc2)SC1=S | 2 | 8 µg/mL (≈ 16.2 µM) | 2 | 8 µg/mL (≈ 16.2 µM) | 8 µg/mL (≈ 16.2 µM) | 2 | 8 µg/mL (≈ 16.2 µM) | 2 | > 64 µg/mL | 8 µg/mL (≈ 16.2 µM) | 8 µg/mL (≈ 16.2 µM) | 4 µg/mL (≈ 8.1 µM)
22 | O=C(O)[C@H](Cc1ccccc1)N1C(=O)/C(=C\c2ccc(OCc3ccccc3)cc2)SC1=S | 2 | 8 µg/mL (≈ 16.8 µM) | 2 | 4 µg/mL (≈ 8.41 µM) | 8 µg/mL (≈ 16.8 µM) | 2 | 8 µg/mL (≈ 16.8 µM) | 2 | > 64 µg/mL | 8 µg/mL (≈ 16.8 µM) | 4 µg/mL (≈ 8.41 µM) | 2 µg/mL (≈ 4.21 µM)
23 | O=C(/C=C/c1ccc(/C=C2\SC(=S)N([C@@H](Cc3ccccc3)C(=O)O)C2=O)cc1)c1ccccc1Cl | 2 | 16 µg/mL (≈ 30 µM) | 2 | 2 µg/mL (≈ 3.74 µM) | 4 µg/mL (≈ 7.49 µM) | 2 | 4 µg/mL (≈ 7.49 µM) | 2 | > 64 µg/mL | 16 µg/mL (≈ 30 µM) | 4 µg/mL (≈ 7.49 µM) | 2 µg/mL (≈ 3.74 µM)
